# In paper PMC5882164, “A novel calcimimetic agent, evocalcet (MT-4580/KHK7580), suppresses the parathyroid cell function with little effect on the gastrointestinal tract or CYP isozymes in vivo and in vitro” (PLoS ONE, 2018):
# “And” between values parts separate entries of the source, which are not always exact repeats. Equal entries are not always repeated. Structures can show the parent of a compound that is named as a salt.
# Assays:
# emesis = settings: common marmoset, in vivo, 4 h
# Experimental: The study of effect of evocalcet on emesis in common marmoset was performed by referencing a previously reported method. The marmosets (n = 24) used for this study were housed in cages (460 × 600 × 655 mm) with environmental enrichments (wooden perches, swing, and balls) and acclimated for at least 4 weeks. The marmosets were fasted from evening on the day before administration. To confirm the reduction in the serum PTH levels, blood samples (about 300~400 μL, 1.2∼1.6% of total blood volume) were collected from the femoral or saphenous vein without an anesthesia before and at 1 and 4 h after the oral administration of evocalcet (1.5 or 5 μg/kg, n = 3 in each dose) or cinacalcet (300 or 500 μg/kg, n = 3 in each dose) suspended in 0.5% methyl cellulose solution using a metallic gastric zonde. The serum PTH level was measured using a Porcine Intact PTH ELISA kit (Immutopics, Inc., San Clemente, CA, USA). To evaluate the emetic effects in marmosets, evocalcet (50 or 150 μg/kg) or cinacalcet (1500 or 5000 μg/kg) was orally administered (n = 6/drug, dose down titration, n = 12 in total). The observation of emesis was conducted until 4 h after the administration.
# serum calcium = assay: 5/6 nephrectomized rats study: serum calcium level; type: in vivo, rat; parameters: Serum Ca levels: unit not given here; settings: 5/6 Nx rats
# Experimental: Rats were 5/6 nephrectomized in two steps. Under anesthesia (pentobarbital, 50 mg/kg; intraperitoneally) and analgesia (lidocaine; topically), two-thirds of the left kidney was removed, and then the right kidney was removed after a seven-day interval. Seven days after the completion of 5/6 nephrectomy, the FR-2 diet was changed to a high-phosphate diet, containing 0.6% calcium and 0.9% phosphate (Oriental Yeast Co., Ltd., Tokyo, Japan). Approximately 2 weeks after the initiation of the high-phosphate diet, the 5/6 Nx rats were divided into five groups (n = 12/group) matched in terms of their body weight as well as their blood urea nitrogen (BUN) and serum PTH and calcium levels.
# In the single-dose study, blood samples were collected from the tail vein before and at 0.5, 2, 4, 8, 24, 48, and 72 h after the oral administration of vehicle (0.5% methyl cellulose solution) or evocalcet (0.03, 0.1, 0.3, or 1 mg/kg). In the repeated-dose study, vehicle or evocalcet was orally administered to the respective groups once daily for 14 days. Blood samples were obtained from the tail vein before the first administration and after the seventh and last administrations.
# The serum PTH level was measured using a Rat Intact PTH ELISA kit (Immutopics, Inc., San Clemente, CA). The serum calcium, phosphate and BUN levels were measured using an auto analyzer (Hitachi High-Technologies Corporation., Tokyo, Japan) or the following test kits: the Calcium E-test WAKO, the Phospha C-test WAKO, or the Blood Urea nitrogen B-test WAKO (Wako Pure Chemical Industries, Ltd., Osaka, Japan).
structure (smiles),measurement,setting,value
"C[C@@H](NCCCc1cccc(C(F)(F)F)c1)c1cccc2ccccc12 [cinacalcet, Cinacalcet hydrochloride, reference compound]",Safety margin,emesis,3 < X < 10
C[C@@H](N[C@H]1CCN(c2ccc(CC(=O)O)cc2)C1)c1cccc2ccccc12 [evocalcet],"Serum Ca levels before (day 0) and 24 h after evocalcet administration, Mean","serum calcium; 0.03 mg/kg, day 0 (Before), group mean",7.862
same,Serum Ca levels before (day 0) and 24 h after evocalcet administration,"serum calcium; 0.03 mg/kg, day 0 (Before), individual rats, 0.03 mg/kg",6.475 and 7.379 and 7.410 and 6.746 and 6.842 and 8.689 and 8.077 and 8.881 and 8.577 and 8.645 and 8.453 and 8.169
same,"Serum Ca levels before (day 0) and 24 h after evocalcet administration, Mean","serum calcium; 0.03 mg/kg, day 7 (24 h), group mean",6.700
same,Serum Ca levels before (day 0) and 24 h after evocalcet administration,"serum calcium; 0.03 mg/kg, day 7 (24 h), individual rats, 0.03 mg/kg",4.756 and 6.463 and 7.204 and 6.649 and 7.424 and 7.568 and 6.316 and 6.947 and 6.611 and 7.154 and 6.338 and 6.972
same,"Serum Ca levels before (day 0) and 24 h after evocalcet administration, Mean","serum calcium; 0.03 mg/kg, day 14 (24 h), group mean",7.524
same,Serum Ca levels before (day 0) and 24 h after evocalcet administration,"serum calcium; 0.03 mg/kg, day 14 (24 h), individual rats, 0.03 mg/kg",6.629 and 7.365 and 7.620 and 6.148 and 7.312 and 8.717 and 7.991 and 8.107 and 7.192 and 7.532 and 7.865 and 7.809
same,"Serum Ca levels after the first administration, Mean","serum calcium; 0.03 mg/kg, time 0 h, group mean",7.862
same,Serum Ca levels after the first administration,"serum calcium; 0.03 mg/kg, time 0 h, individual rats",6.475 and 7.379 and 7.410 and 6.746 and 6.842 and 8.689
same,"Serum Ca levels after the first administration, Mean","serum calcium; 0.03 mg/kg, time 0.5 h, group mean",7.066
same,Serum Ca levels after the first administration,"serum calcium; 0.03 mg/kg, time 0.5 h, individual rats",5.843 and 6.570 and 6.547 and 6.666 and 6.639 and 7.943
same,"Serum Ca levels after the first administration, Mean","serum calcium; 0.03 mg/kg, time 2 h, group mean",7.130
same,Serum Ca levels after the first administration,"serum calcium; 0.03 mg/kg, time 2 h, individual rats",6.221 and 6.752 and 6.943 and 6.746 and 6.851 and 7.851
same,"Serum Ca levels after the first administration, Mean","serum calcium; 0.03 mg/kg, time 4 h, group mean",7.511
same,Serum Ca levels after the first administration,"serum calcium; 0.03 mg/kg, time 4 h, individual rats",6.129 and 7.183 and 6.895 and 7.539 and 6.860 and 8.183
same,"Serum Ca levels after the first administration, Mean","serum calcium; 0.03 mg/kg, time 8 h, group mean",7.889
same,Serum Ca levels after the first administration,"serum calcium; 0.03 mg/kg, time 8 h, individual rats",7.265 and 7.625 and 7.368 and 8.097 and 7.474 and 8.633
same,"Serum Ca levels after the first administration, Mean","serum calcium; 0.03 mg/kg, time 24 h, group mean",7.657
same,Serum Ca levels after the first administration,"serum calcium; 0.03 mg/kg, time 24 h, individual rats",7.337 and 7.644 and 7.429 and 7.568 and 7.040 and 8.620
same,"Serum Ca levels before (day 0) and 24 h after evocalcet administration, Mean","serum calcium; 0.1 mg/kg, day 0 (Before), group mean",7.709
same,Serum Ca levels before (day 0) and 24 h after evocalcet administration,"serum calcium; 0.1 mg/kg, day 0 (Before), individual rats, 0.1 mg/kg",7.331 and 8.275 and 7.642 and 7.659 and 8.173 and 8.364 and 6.513 and 7.933 and 8.070 and 7.690 and 6.674 and 8.180
same,"Serum Ca levels before (day 0) and 24 h after evocalcet administration, Mean","serum calcium; 0.1 mg/kg, day 7 (24 h), group mean",7.317
same,Serum Ca levels before (day 0) and 24 h after evocalcet administration,"serum calcium; 0.1 mg/kg, day 7 (24 h), individual rats, 0.1 mg/kg",7.427 and 8.099 and 7.493 and 7.242 and 7.637 and 7.025 and 6.448 and 7.138 and 7.123 and 6.680 and 7.302 and 8.184
same,"Serum Ca levels before (day 0) and 24 h after evocalcet administration, Mean","serum calcium; 0.1 mg/kg, day 14 (24 h), group mean",7.011
same,Serum Ca levels before (day 0) and 24 h after evocalcet administration,"serum calcium; 0.1 mg/kg, day 14 (24 h), individual rats, 0.1 mg/kg",7.048 and 7.642 and 6.969 and 7.601 and 6.617 and 6.853 and 5.928 and 7.145 and 7.117 and 6.576 and 7.375 and 7.261
same,"Serum Ca levels after the first administration, Mean","serum calcium; 0.1 mg/kg, time 0 h, group mean",7.709
same,Serum Ca levels after the first administration,"serum calcium; 0.1 mg/kg, time 0 h, individual rats",7.331 and 8.275 and 7.642 and 7.659 and 8.173 and 8.364 and 6.513 and 7.933 and 8.070 and 7.690 and 6.674
same,"Serum Ca levels after the first administration, Mean","serum calcium; 0.1 mg/kg, time 0.5 h, group mean",6.755
same,Serum Ca levels after the first administration,"serum calcium; 0.1 mg/kg, time 0.5 h, individual rats",6.761 and 6.580 and 6.840 and 7.344 and 6.409 and 6.926 and 6.241 and 6.919 and 6.445 and 6.968 and 6.307
same,"Serum Ca levels after the first administration, Mean","serum calcium; 0.1 mg/kg, time 2 h, group mean",6.694
same,Serum Ca levels after the first administration,"serum calcium; 0.1 mg/kg, time 2 h, individual rats",6.582 and 6.412 and 6.604 and 7.150 and 6.977 and 6.857 and 5.795 and 6.903 and 7.147 and 6.715 and 6.267
same,"Serum Ca levels after the first administration, Mean","serum calcium; 0.1 mg/kg, time 4 h, group mean",7.099
same,Serum Ca levels after the first administration,"serum calcium; 0.1 mg/kg, time 4 h, individual rats",7.060 and 7.085 and 7.028 and 7.482 and 7.364 and 7.406 and 5.948 and 7.326 and 7.361 and 7.050 and 6.742
same,"Serum Ca levels after the first administration, Mean","serum calcium; 0.1 mg/kg, time 8 h, group mean",7.285
same,Serum Ca levels after the first administration,"serum calcium; 0.1 mg/kg, time 8 h, individual rats",7.692 and 7.609 and 7.307 and 7.085 and 7.975 and 4.442 and 6.559 and 7.908 and 8.235 and 7.683
same,"Serum Ca levels after the first administration, Mean","serum calcium; 0.1 mg/kg, time 24 h, group mean",7.626
same,Serum Ca levels after the first administration,"serum calcium; 0.1 mg/kg, time 24 h, individual rats",7.618 and 8.042 and 7.976 and 7.739 and 7.539 and 7.979 and 6.079 and 7.486 and 8.194 and 7.356
same,Serum Ca levels,"serum calcium; 0.3 mg/kg, day 0 (before), group mean",7.177
same,Serum Ca levels,"serum calcium; 0.3 mg/kg, day 0 (before), individual rats, 0.3 mg/kg",7.714 and 7.098 and 4.207 and 6.520 and 8.019 and 4.857 and 7.006 and 8.419 and 8.245 and 7.878 and 7.711 and 8.450
same,Serum Ca levels,"serum calcium; 0.3 mg/kg, day 7 (24 h after administration), group mean",5.744
same,Serum Ca levels,"serum calcium; 0.3 mg/kg, day 7 (24 h after administration), individual rats, 0.3 mg/kg",6.617 and 4.991 and 5.484 and 4.834 and 5.302 and 6.718 and 6.297 and 6.366 and 7.085 and 5.154 and 4.887 and 5.195
same,Serum Ca levels,"serum calcium; 0.3 mg/kg, day 14 (24 h after administration), group mean",5.948
same,Serum Ca levels,"serum calcium; 0.3 mg/kg, day 14 (24 h after administration), individual rats, 0.3 mg/kg",6.601 and 5.324 and 6.337 and 4.673 and 5.104 and 7.592 and 6.733 and 6.057 and 5.865 and 5.887 and 5.547 and 5.661
same,"Serum Ca levels after the first administration, Mean","serum calcium; 0.3 mg/kg, time 0 h, group mean",7.177
same,"Serum Ca levels after the first administration, Mean","serum calcium; 0.3 mg/kg, time 0.5 h, group mean",6.778
same,"Serum Ca levels after the first administration, Mean","serum calcium; 0.3 mg/kg, time 2 h, group mean",6.136
same,"Serum Ca levels after the first administration, Mean","serum calcium; 0.3 mg/kg, time 4 h, group mean",6.714
same,"Serum Ca levels after the first administration, Mean","serum calcium; 0.3 mg/kg, time 8 h, group mean",7.218
same,"Serum Ca levels after the first administration, Mean","serum calcium; 0.3 mg/kg, time 24 h, group mean",7.101
same,Serum Ca levels,"serum calcium; 1 mg/kg, day 0 (before), group mean",7.784
same,Serum Ca levels,"serum calcium; 1 mg/kg, day 0 (before), individual rats, 1 mg/kg",7.396 and 7.591 and 7.831 and 7.728 and 8.433 and 7.868 and 8.231 and 7.824 and 8.217 and 9.292 and 6.900 and 6.102
same,Serum Ca levels,"serum calcium; 1 mg/kg, day 7 (24 h after administration), group mean",5.027
same,Serum Ca levels,"serum calcium; 1 mg/kg, day 7 (24 h after administration), individual rats, 1 mg/kg",5.540 and 3.798 and 5.148 and 4.511 and 4.963 and 5.487 and 4.665 and 5.044 and 4.307 and 5.493 and 4.570 and 6.793
same,Serum Ca levels,"serum calcium; 1 mg/kg, day 14 (24 h after administration), group mean",4.801
same,Serum Ca levels,"serum calcium; 1 mg/kg, day 14 (24 h after administration), individual rats, 1 mg/kg",5.359 and 3.730 and 4.903 and 4.736 and 4.928 and 5.192 and 4.708 and 5.906 and 3.598 and 4.859 and 4.220 and 5.475
same,"Serum Ca levels after the first administration, Mean","serum calcium; 1 mg/kg, time 0 h, group mean",7.784
same,"Serum Ca levels after the first administration, Mean","serum calcium; 1 mg/kg, time 0.5 h, group mean",6.460
same,"Serum Ca levels after the first administration, Mean","serum calcium; 1 mg/kg, time 2 h, group mean",5.290
same,"Serum Ca levels after the first administration, Mean","serum calcium; 1 mg/kg, time 4 h, group mean",5.870
same,"Serum Ca levels after the first administration, Mean","serum calcium; 1 mg/kg, time 8 h, group mean",6.299
same,"Serum Ca levels after the first administration, Mean","serum calcium; 1 mg/kg, time 24 h, group mean",6.253
same,Doses that steadily decreased the serum calcium level,"serum calcium; once daily oral for 14 days, 24 h after administration on days 7 and 14",≥ 0.3 mg/kg
same,Doses that significantly decreased the serum calcium level,"serum calcium; single oral dose, vs vehicle group",≥ 0.1 mg/kg
